Source: US10202368B2, “CXCR7 receptor modulators” (IDORSIA PHARMACEUTICALS LTD, priority 2014, dated 2019)

target: CXCR7 (Homo sapiens (Human), UniProt P25106); assay: PathHunter CHO-K1 CXCR7 β-arrestin assay (agonistic activity); type: cell-based; settings: β-arrestin recruitment in PathHunter CHO-K1 CXCR7 β-arrestin cells, 90 minutes at 37° C., geometric mean values
Outline: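 The enzyme-fragment complementation format pairs ProLink-tagged CXCR7 with EA–β-arrestin 2 in CHO-K1 cells, seeded at 5000/well for 24 h and serum-starved in OPTIMEM 3–4 h. Compounds were added in HBSS/20 mM HEPES/0.2% BSA for 90 min at 37 °C, followed by 1 h detection at room temperature and chemiluminescence read-out. EC50 is the geometric mean of several measurements.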

CXCR7, sequence (P25106 whole entry, the tested form may be a part): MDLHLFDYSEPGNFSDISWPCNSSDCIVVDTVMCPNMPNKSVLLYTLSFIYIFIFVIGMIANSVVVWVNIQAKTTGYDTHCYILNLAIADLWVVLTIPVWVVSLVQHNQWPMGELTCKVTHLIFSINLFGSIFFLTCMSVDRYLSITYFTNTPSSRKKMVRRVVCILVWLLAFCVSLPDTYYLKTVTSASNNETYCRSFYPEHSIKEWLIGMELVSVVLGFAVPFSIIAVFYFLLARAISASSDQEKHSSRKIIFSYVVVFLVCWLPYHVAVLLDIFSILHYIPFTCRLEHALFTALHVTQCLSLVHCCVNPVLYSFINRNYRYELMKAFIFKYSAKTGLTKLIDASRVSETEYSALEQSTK
CXCR7, sequence (P32121 whole entry partner, the tested form may be a part): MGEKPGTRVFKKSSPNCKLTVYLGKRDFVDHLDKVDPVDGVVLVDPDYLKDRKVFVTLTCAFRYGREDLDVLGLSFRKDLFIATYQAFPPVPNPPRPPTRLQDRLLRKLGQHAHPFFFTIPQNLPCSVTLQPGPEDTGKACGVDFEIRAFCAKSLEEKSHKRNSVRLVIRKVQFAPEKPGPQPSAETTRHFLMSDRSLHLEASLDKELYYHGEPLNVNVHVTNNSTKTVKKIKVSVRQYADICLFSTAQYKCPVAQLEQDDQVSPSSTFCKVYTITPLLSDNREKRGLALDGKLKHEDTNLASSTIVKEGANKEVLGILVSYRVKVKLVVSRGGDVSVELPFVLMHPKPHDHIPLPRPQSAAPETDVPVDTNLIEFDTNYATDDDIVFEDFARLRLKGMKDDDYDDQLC

**Q.** Which EC50 does the source give for `CCN1CCOc2c(cccc2NCC(=O)N(CCN(C)C)Cc2c(C(F)(F)F)nn(C)c2Cl)C1` [Example 77, N-(5-Chloro-1-methyl-3-trifluoromethyl-1H-pyrazol-4-ylmethyl)-N-(2-dimethylamino-ethyl)-2-(4-ethyl-2,3,4,5-tetrahydro-benzo[f][1,4]oxazepin-9-ylamino)-acetamide] here?
**A.** 280 nM

**Q.** For `CCN1CCOc2c(cccc2NCC(=O)N(CCN(C)C(=O)OC(C)(C)C)Cc2ncccc2Cl)C1` [Example 78, (2-{(3-Chloro-pyridin-2-ylmethyl)-[2-(4-ethyl-2,3,4,5-tetrahydro-benzo[f][1,4]oxazepin-9-ylamino)-acetyl]-amino}-ethyl)-methyl-carbamic acid tert-butyl ester], which EC50 is on record?
**A.** 240 nM

**Q.** How did the EC50 turn out when `O=C(CNc1cccc2c1OCCN(CC1CC1)C2)N(CCN1CCCC1)Cc1ncccc1C(F)(F)F` [Example 82, 2-(4-Cyclopropylmethyl-2,3,4,5-tetrahydro-benzo[f][1,4]oxazepin-9-ylamino)-N-(2-pyrrolidin-1-yl-ethyl)-N-(3-trifluoromethyl-pyridin-2-ylmethyl)-acetamide] was run?
**A.** 2 nM

**Q.** `CC(C)(C)NCCN(Cc1ccccc1C(F)(F)F)C(=O)CNc1cccc2c1OCCN(CC1CC1)C2` [Example 83, N-(2-tert-Butylamino-ethyl)-2-(4-cyclopropylmethyl-2,3,4,5-tetrahydro-benzo[f][1,4]oxazepin-9-ylamino)-N-(2-trifluoromethyl-benzyl)-acetamide] was tested. Which EC50 did it give?
**A.** 3 nM

**Q.** `CN(C)CCN(Cc1ccccc1C(F)(F)F)C(=O)CNc1cccc2c1OCCN(CC1CC1)C2` [Example 84, 2-(4-Cyclopropylmethyl-2,3,4,5-tetrahydro-benzo[f][1,4]oxazepin-9-ylamino)-N-(2-dimethylamino-ethyl)-N-(2-trifluoromethyl-benzyl)-acetamide] was tested. Which EC50 did it give?
**A.** 4 nM

**Q.** Which EC50 does the source give for `CC(C)NCCN(Cc1ccccc1C(F)(F)F)C(=O)CNc1cccc2c1OCCN(CC1CC1)C2` [Example 85, 2-(4-Cyclopropylmethyl-2,3,4,5-tetrahydro-benzo[f][1,4]oxazepin-9-ylamino)-N-(2-isopropylamino-ethyl)-N-(2-trifluoromethyl-benzyl)-acetamide] here?
**A.** 3 nM

**Q.** `CN(C)CCN(Cc1ccccc1Cl)C(=O)CNc1cccc2c1CN(CC1CC1)CCO2` [Example 86, N-(2-Chloro-benzyl)-2-(4-cyclopropylmethyl-2,3,4,5-tetrahydro-benzo[f][1,4]oxazepin-6-ylamino)-N-(2-dimethylamino-ethyl)-acetamide] was tested. Which EC50 did it give?
**A.** 14 nM

**Q.** With `Cc1cccnc1CN(CCN(C)C)C(=O)CNc1cccc2c1CN(CC1CC1)CCO2` [Example 87, 2-(4-Cyclopropylmethyl-2,3,4,5-tetrahydro-benzo[f][1,4]oxazepin-6-ylamino)-N-(2-dimethylamino-ethyl)-N-(3-methyl-pyridin-2-ylmethyl)-acetamide] as the compound, how does the EC50 read?
**A.** 23 nM

**Q.** Which EC50 does the source give for `CN(C)CCN(Cc1cccc(Cl)c1Cl)C(=O)CNc1cccc2c1CN(CC1CC1)CCO2` [Example 88, 2-(4-Cyclopropylmethyl-2,3,4,5-tetrahydro-benzo[f][1,4]oxazepin-6-ylamino)-N-(2,3-dichloro-benzyl)-N-(2-dimethylamino-ethyl)-acetamide] here?
**A.** 15 nM

**Q.** Which EC50 does the source give for `CC(C)NCCN(Cc1ccccc1C(F)(F)F)C(=O)CNc1cccc2c1CN(CC1CC1)CCO2` [Example 89, 2-(4-Cyclopropylmethyl-2,3,4,5-tetrahydro-benzo[f][1,4]oxazepin-6-ylamino)-N-(2-isopropylamino-ethyl)-N-(2-trifluoromethyl-benzyl)-acetamide] here?
**A.** 5 nM

**Q.** `CC(C)NCCN(Cc1ncccc1C(F)(F)F)C(=O)CNc1cccc2c1CN(CC1CC1)CCO2` [Example 90, 2-(4-Cyclopropylmethyl-2,3,4,5-tetrahydro-benzo[f][1,4]oxazepin-6-ylamino)-N-(2-isopropylamino-ethyl)-N-(3-trifluoromethyl-pyridin-2-ylmethyl)-acetamide] was tested. Which EC50 did it give?
**A.** 7 nM

**Q.** With `CC(C)(C)NCCN(Cc1ccccc1Cl)C(=O)CNc1cccc2c1CN(CC1CC1)CCO2` [Example 91, N-(2-tert-Butylamino-ethyl)-N-(2-chloro-benzyl)-2-(4-cyclopropylmethyl-2,3,4,5-tetrahydro-benzo[f][1,4]oxazepin-6-ylamino)-acetamide] as the compound, how does the EC50 read?
**A.** 8 nM

**Q.** How did the EC50 turn out when `CC(C)(C)NCCN(Cc1ncccc1Cl)C(=O)CNc1cccc2c1CN(CC1CC1)CCO2` [Example 92, N-(2-tert-Butylamino-ethyl)-N-(3-chloro-pyridin-2-ylmethyl)-2-(4-cyclopropylmethyl-2,3,4,5-tetrahydro-benzo[f][1,4]oxazepin-6-ylamino)-acetamide] was run?
**A.** 10 nM

**Q.** Which EC50 does the source give for `CC(C)(C)NCCN(Cc1ccccc1C(F)(F)F)C(=O)CNc1cccc2c1CN(CC1CC1)CCO2` [Example 93, N-(2-tert-Butylamino-ethyl)-2-(4-cyclopropylmethyl-2,3,4,5-tetrahydro-benzo[f][1,4]oxazepin-6-ylamino)-N-(2-trifluoromethyl-benzyl)-acetamide] here?
**A.** 3 nM

**Q.** `CC(C)(C)NCCN(Cc1ncccc1C(F)(F)F)C(=O)CNc1cccc2c1CN(CC1CC1)CCO2` [Example 94, N-(2-tert-Butylamino-ethyl)-2-(4-cyclopropylmethyl-2,3,4,5-tetrahydro-benzo[f][1,4]oxazepin-6-ylamino)-N-(3-trifluoromethyl-pyridin-2-ylmethyl)-acetamide] was tested. Which EC50 did it give?
**A.** 4 nM
